From patent publication US4329353A (priority 1981, dated 1982)
Structures can show the parent of a compound that is named as a salt. Where two headings read alike, the source gives them in different places.

System: apomorphine-induced emesis
Assay: animal or person
Format: in vivo, beagle dogs
Conditions: Canis lupus familiaris, sc, 1 h

| SMILES | ED50 (read-out: ED50 (APO)-dog) | ED50 (read-out: ED50 (APO)dog) |
| --- | --- | --- |
| CC(=O)CCN1CN(c2ccc(F)cc2)C2(CCN(C3CCC(C#N)(c4ccc(F)cc4)CC3)CC2)C1=O (single isomer, unassigned) [CH2 CH2 COCH3, B, HCl . H2 O] | 2 µg/kg | – |
| NC(=O)C1(c2ccc(F)cc2)CCC(N2CCC3(CC2)C(=O)NCN3c2ccc(F)cc2)CC1 (centres unmarked) [CONH2,4-FC6 H4,4-FC6 H4, B, base, (B)-1-(4-fluorophenyl)-4-[1-(4-fluorophenyl)-4-oxo-1,3,8-triazaspiro[4,5]dec-8-yl]cyclohexanecarboxamide] | – | 8 µg/kg |
| N#CC1(c2ccc(F)cc2)CCC(N2CCC3(CC2)C(=O)N(C(=O)Nc2ccccc2)CN3c2ccc(F)cc2)CC1 (centres unmarked) [CONHC6 H5, B, base, (B)-8-[4-cyano-4-(4-fluorophenyl)cyclohexyl]-1-(4-fluorophenyl)-4-oxo-N-phenyl-1,3,8-triazaspiro[4,5]decane-3-carboxamide] | < 160 µg/kg | – |
| COC(=O)C1(c2ccc(F)cc2)CCC(N2CCC3(CC2)C(=O)NCN3c2ccc(F)cc2)CC1 (centres unmarked) [COOCH3,4-FC6 H4,4-FC6 H4, base] | – | 1.8 µg/kg |
| CNC(=S)N1CN(c2ccc(F)cc2)C2(CCN(C3CCC(C#N)(c4ccc(F)cc4)CC3)CC2)C1=O (centres unmarked) [CSNHCH3, base, (B)-8-[4-cyano-4-(4-fluorophenyl)cyclohexyl]-1-(4-fluorophenyl)-N-methyl-4-oxo-1,3,8-triazaspiro[4,5]decane-3-carbothioamide] | < 4 µg/kg | – |
